Laboratory results reported in US8921366B2, “Substituted triazolo-pyridazine derivatives” (Concert Pharmaceuticals, Inc., priority 2008, dated 2014).

Legend:
[1] = Metabolic stability in rat liver microsomes; format: in vitro ADME; settings: for stability in rat microsomes / parent compound remained intact: 30 minutes incubation; for half-life at 0.25 µM: pH 7.4, calculated from slope of ln % parent remaining vs time, read-out: in vitro half-life
Procedure: (§1) Human liver microsomes (20 mg/mL) and rat liver microsomes (20 mg/mL) were obtained from Xenotech, LLC (Lenexa, Kans.). β-nicotinamide adenine dinucleotide phosphate, reduced form (NADPH), magnesium chloride (MgCl2), and dimethyl sulfoxide (DMSO) were purchased from Sigma-Aldrich. 7.5 mM stock solutions of test compounds (L-838417, Compound 101, Compound 103, Compound 104 and Compound 105) were prepared in DMSO. The 7.5 mM stock solutions were diluted to 12.5 μM in acetonitrile (ACN). The 20 mg/mL […] were diluted to […] in 0.1 M potassium phosphate buffer, pH 7.4, containing 3 mM MgCl2. The diluted microsomes (375 μL) were added to wells of a 96-well deep-well polypropylene plate in triplicate. 10 μL of the 12.5 μM test compound was added to the microsomes and the mixture was pre-warmed for 10 minutes. Reactions were initiated by addition of 125 μL pre-warmed NADPH solution. The final reaction volume is 0.5 mL and contained 0.5 mg/mL human liver microsomes, 0.25 μM test compound, and 2 mM NADPH in 0.1 M potassium phosphate buffer, pH 7.4, and 3 mM MgCl2. The reaction mixtures are incubated at 37° C., and 50 μL aliquots were removed at 0, 5, 10, 20, and 30 minutes and added to shallow-well 96-well plates which contained 50 μL of ice-cold ACN with internal standard to stop the reactions. The plates were stored at 4° C. for 20 minutes after which 100 μL of water was added to the wells of the plate before centrifugation to pellet precipitated proteins. Supernatants were transferred to another 96-well plate and analyzed for amounts of parent remaining by LC-MS/MS using an Applied Bio-systems API 4000 mass spectrometer. 7-ethoxycoumarin (1 μM) was used as a positive control. The in vitro t1/2s for test compounds were calculated from the slopes of the linear regression of % parent remaining (ln) vs incubation time relationship, using the formula: in vitro t1/2=0.693/k, where k=−[slope of linear regression of % parent remaining(ln) vs incubation time] Data analysis is performed using Microsoft Excel Software.

[2] = Metabolic stability in human liver microsomes; format: in vitro ADME; settings: for stability in human liver microsomes: 30 minute incubation
Procedure: as §1

[3] = Pharmacokinetics after oral administration to rats; format: in vivo, Sprague-Dawley rats; settings: for AUC0-6 % Change over L-838417 / AUC0-6 relative to undeuterated L-838417 / Cmax % Change over L-838417 / Cmax relative to L-838417: oral, rats; for Cmax / AUC(0-t): rat, plasma, oral gavage, 1 mg/kg each as 1:1:1 mixture, male Sprague-Dawley rats; for AUC(0-t): read-out: AUC0-6
Procedure: (§2) Three male Sprague-Dawley rats (200-250 g each) were cannulated in the jugular vein and were administered a single dose containing 1 mg/kg each of L-838417, Compound 103 and Compound 105 (as a 1:1:1 mixture containing 1 mg/mL of each of the three compounds in 10% dimethyl sulfoxide (DMSO), 10% N,N-dimethylacetamide (DMA), and 60% polyethylene glycol (PG) through the jugular cannula. Three additional male Sprague-Dawley rats (200-250 g each) were administered a single dose containing 1 mg/kg each of L-838417, Compound 103 and Compound 105 (as a 1:1:1 mixture containing 1 mg/mL of each of the three compounds in 10% dimethyl sulfoxide (DMSO), 10% N,N-dimethylacetamide (DMA), and 60% polyethylene glycol (PG) by oral gavage. Blood (0.25 mL) from intravenously treated test rats was collected retro-orbitally at 2, 5, 15, and 30 minutes, and 1, 2, 4, and 6 hours post-dosing. Blood (0.25 mL) from orally treated test rats was collected retro-orbitally at 5, 15, 30, and 45 minutes, and 1, 2, 4, and 6 hours post-dosing. Blood was collected into tubes containing K2EDTA as anticoagulant at the above mentioned time points. Blood samples were stored on ice and then centrifuged to obtain plasma. The plasma (˜[…]) was aliquoted into deep 96-well plates and stored at −80° C. until analysis by LC-MS/MS using an Applied Bio-systems API 4000 mass spectrometer.

[4] = Pharmacokinetics after intravenous administration to rats; format: in vivo, Sprague-Dawley rats; settings: for clearance / half-life / AUC(0-t): rat, plasma, 1 mg/kg each as 1:1:1 mixture, male Sprague-Dawley rats; for AUC(0-t): read-out: AUC0-6; for AUC0-6 % Change over L-838417 / AUC0-6 relative to undeuterated L-838417 / CL % Change over L-838417 / cleared more slowly than L-838417 / longer half-life than undeuterated L-838417 / t1/2 % Change over L-838417: rats
Procedure: as §2

Structure (SMILES) | stability in rat microsomes [1] | stability in human liver microsomes [2] | AUC0-6 % Change over L-838417 [3] | AUC0-6 relative to undeuterated L-838417 [3] | Cmax % Change over L-838417 [3] | Cmax relative to L-838417 [3] | Cmax [3] [ng/mL] | AUC(0-t) [3] [ng·h/mL] | clearance [4] [mL/min/kg] | half-life [4] [min] | AUC(0-t) [4] [ng·h/mL] | AUC0-6 % Change over L-838417 [4] | AUC0-6 relative to undeuterated L-838417 [4] | CL % Change over L-838417 [4] [%] | cleared more slowly than L-838417 [4] | longer half-life than undeuterated L-838417 [4] | t1/2 % Change over L-838417 [4] | parent compound remained intact [1] | half-life at 0.25 µM [1] [min] | other results
[2H]C([2H])([2H])n1ncnc1COc1nn2c(-c3cc(F)ccc3F)nnc2cc1C(C([2H])([2H])[2H])(C([2H])([2H])[2H])C([2H])([2H])[2H] [Compound 104, 7-(tert-Butyl-d9)-3-(2,5-difluorophenyl)-6-((1-(methyl-d3)-1H-1,2,4-triazol-5-yl)-methoxy)-[1,2,4]triazolo[4,3-b]pyridazine] | stable | stable | – | – | – | – | – | – | – | – | – | – | – | – | – | – | – | – | – | –
[2H]C([2H])([2H])C(c1cc2nnc(-c3cc(F)ccc3F)n2nc1OCc1ncnn1C)(C([2H])([2H])[2H])C([2H])([2H])[2H] [Compound 103, 7-(tert-Butyl-d9)-3-(2,5-difluorophenyl)-6-((1-methyl-1H-1,2,4-triazol-5-yl)methoxy)-[1,2,4]triazolo[4,3-b]pyridazine] | stable | stable | +156% | greater than two and a half-fold higher | +116% | greater than two-fold higher | 277 ± 76 | 1260 ± 289 | 8 | 75 ± 8.4 | 1920 ± 200 | +131% | greater than two-fold higher | −62 | approximately 60% | approximately 80% | +79% | – | – | –
[2H]C([2H])(Oc1nn2c(-c3cc(F)ccc3F)nnc2cc1C(C)(C)C)c1ncnn1C([2H])([2H])[2H] [Compound 101, 7-tert-Butyl-3-(2,5-difluorophenyl)-6-((1-(methyl-d3)-1H-1,2,4-triazol-5-yl)-1,1-d2-methoxy)-[1,2,4]triazolo[4,3-b]pyridazine] | – | stable | – | – | – | – | – | – | – | – | – | – | – | – | – | – | – | approximately 70% | 52.7 | –
Cn1ncnc1COc1nn2c(-c3cc(F)ccc3F)nnc2cc1C(C)(C)C [Compound L-838417, 7-tert-butyl-3-(2,5-difluorophenyl)-6-(1-methyl-1H-1,2,4-triazol-5-ylmethoxy)[1,2,4]triazolo[4,3-b]pyridazine, reference compound] | – | – | – | – | – | – | 128 ± 40 | 491 ± 95 | 18.3 | 42 ± 2.4 | 831 ± 86 | – | – | – | – | – | – | approximately 70% | 50.5 | parent compound remained intact ([2]; 30 minutes incubation, 0.25 μM test compound, 37° C.): approximately 70%; half-life at 0.25 µM ([2]; pH 7.4, calculated from slope of ln % parent remaining vs time, read-out: in vitro half life): 54.4 min
[2H]C([2H])(Oc1nn2c(-c3cc(F)ccc3F)nnc2cc1C(C([2H])([2H])[2H])(C([2H])([2H])[2H])C([2H])([2H])[2H])c1ncnn1C([2H])([2H])[2H] [Compound 105, 7-(tert-Butyl-d9)-3-(2,5-difluorophenyl)-6-((1-(methyl-d3)-1H-1,2,4-triazol-5-yl)-1,1-d2-methoxy)-[1,2,4]triazolo[4,3-b]pyridazine] | stable | stable | +154% | greater than two and a half-fold higher | +119% | greater than two-fold higher | 280 ± 80 | 1250 ± 272 | 7.67 | 76.2 ± 8.4 | 1960 ± 190 | +136% | greater than two-fold higher | −60 | approximately 60% | approximately 80% | +81% | – | – | –
